The values that follow come from paper PMC8700061, “Fragment-Sized and Bidentate (Immuno)Proteasome Inhibitors Derived from Cysteine and Threonine Targeting Warheads” (Cells, 2021).

Molecules are shown by their SMILES. Marks after values point to notes of the source that are not given here.

The nature of data set [1]: UV-Vis-based stability assay in buffer. It is filed as physicochemical. The conditions noted are these: after 1 h, assay buffer pH 7.4, 37 °C, 50 µM. How it is done:
The aqueous stability of all compounds was determined spectrophotometrically by following the changes in the absorption spectra of the compounds. The buffer solution (50 mM Tris-HCl, 0.5 mM EDTA, pH 7.4) was pre-incubated at 37 °C. Aliquots of the compounds studied (1 mM in DMSO) were transferred to a 96-well flat-bottom UV-transparent microplate (Corning, CLS3635, Corning Inc, Corning, NY, USA) containing the buffer solution to obtain a 50 μM solution containing 5% DMSO (final volume, 300 μL). The plate was incubated without lid at 37 °C in a plate reader (Synergy H4, BioTek Instruments, Inc., Santa Clara, CA, USA) and the absorbance spectrum (244–400 nm) was acquired in sweep mode after 0, 15, 30, 60, 120, 180, and 240 min using a discontinuous kinetic procedure in Gen5 software (BioTek Instruments, Inc., Santa Clara, CA, USA). The time required to read the entire plate was 3 min. To determine the baseline, the compound solution was replaced with pure DMSO and subtracted from each reading. Compounds with an absorbance maximum of less than 0.20 AU were not evaluated using these assays due to the high experimental error. For other compounds, the relative absorbance difference between the first time point and 60 min at the most responsive wavelength was calculated. If the relative absorbance difference for the compound in the buffer was below 0.1, between 0.1–0.2, and above 0.2, the compound was classified as stable, intermediate, and unstable, respectively.

A further data set deals with T1, β2 subunit of human cCP (Homo sapiens, UniProt P49720+Q99436).
T1 construct: purchased Boston Biochem, Inc., Cambridge, MA, USA
The experiment in a line: Residual β2 activity, Boc-LRR-AMC. The conditions noted are these: 10 µM, PA28α. It is filed as biochemical. As to the method:
(§1) Residual activity measurements were performed at 10 μM final concentrations in the assay buffer (0.01% SDS, 50 mM Tris-HCl, 0.5 mM EDTA, pH 7.4). Stock solutions of the compounds were prepared in DMSO. To 50 μL of each compound in buffer, 25 μL of 0.8 nM human iCP or human cCP (both from Boston Biochem, Inc., Cambridge, MA, USA) were added. After incubation at 37 °C for 30 min, the reaction was started by adding of 25 μL of 100 μM relevant fluorogenic substrate: acetyl-Nle-Pro-Nle-Asp-AMC (Ac-nLPnLD-AMC, (Bachem, Bubendorf, Switzerland)) for β1, acetyl-Pro-Ala-Leu-7-amino-4-methylcoumarin (Ac-PAL-AMC, (Boston Biochem, Inc., Cambridge, MA, USA)) for β1i, t-butyloxycarbonyl-Leu-Arg-Arg-7-amino-4-methylcoumarin (Boc-LRR-AMC, (Bachem, Bubendorf, Switzerland)) for β2 and β2i, succinyl-Leu-Leu-Val-Tyr-7-amino-4-methylcoumarin (Suc-LLVY-AMC) (Bachem, Bubendorf, Switzerland) for β5 and β5i. Reaction progress was recorded on BioTek Synergy HT microplate reader by monitoring fluorescence at 460 nm (λex = 360 nm) for 90 min at 37 °C. The initial linear ranges were used to calculate velocity and determine residual activity. In the case of evaluation of β1, βi, β2, and β2i activities, the assay buffer was modified by replacing SDS with the proteasomal activator PA28α (Boston Biochem, Inc., Cambridge, MA, USA).

In another data set the target is T2, β2i subunit of human iCP (Homo sapiens, UniProt P40306+P49720).
T2 construct: purchased Boston Biochem, Inc., Cambridge, MA, USA
Put plainly: Residual β2i activity, Boc-LRR-AMC. The class given is biochemical. The conditions noted are these: 10 µM, PA28α. How it is done:
as §1

The next data set deals with T3, β5 subunit of human cCP (Homo sapiens, UniProt P20618+P28074).
T3 construct: purchased Boston Biochem, Inc., Cambridge, MA, USA
Put plainly: Inhibition of β5 activity (RA, IC50), Suc-LLVY-AMC. It is filed as biochemical. The conditions noted are these: 30 min pre-incubation, SDS. How it is done: as §1
(§2) Final assay mixtures contained 0.2 nM human iCP or 0.2 nM human cCP in assay buffer (0.01% SDS (or PA28α in cases of β1, β1i subunits), 50 mM Tris-HCl, 0.5 mM EDTA, pH 7.4). Inhibitors were dissolved in DMSO and added to the black 96-well plates for at least eight different concentrations (the final concentration of DMSO was not more than 1%). After 30 min of incubation at 37 °C, the reaction was started by adding the substrate Suc-LLVY-AMC (for β5 and β5i) or Ac-nLPnLD-AMC (for β1) or Ac-PAL-AMC (for β1i). Fluorescence was monitored at 460 nm (λex = 360 nm) for 90 min at 37 °C. The progress of the reactions was recorded and the initial linear ranges were used to calculate the velocity. IC50 values were calculated using GraphPadPrism (GraphPad Software, San Diego, CA, USA) and are means from at least three independent determinations.

The target of the next data set is T4, β5i subunit of human iCP (Homo sapiens, UniProt P20618+P28062).
T4 construct: purchased Boston Biochem, Inc., Cambridge, MA, USA
Put plainly: Inhibition of β5i activity (RA at 10 µM, IC50, IC50 shift), Suc-LLVY-AMC. The class given is biochemical. The conditions noted are these: for IC50: read-out: IC50 (µM), β5i. How it is done:
as §1
as §2, with “After 30 min of incubation at 37 °C, the reaction was started by adding the substrate Suc-LLVY-AMC (for β5 and β5i) or Ac-nLPnLD-AMC (for β1) or Ac-PAL-AMC (for β1i).” left out

In a further data set the target is T5, β1i subunit of human iCP (Homo sapiens, UniProt P28065+P40306).
T5 construct: purchased Boston Biochem, Inc., Cambridge, MA, USA
Put plainly: Inhibition of β1i activity (RA, IC50), Ac-PAL-AMC. The class given is biochemical. The conditions noted are these: PA28α; for IC50: 30 min pre-incubation. As to the method:
as §1, §2

The target of another data set is T6, β1 subunit of human cCP (Homo sapiens, UniProt P28072+Q99436).
T6 construct: purchased Boston Biochem, Inc., Cambridge, MA, USA
Put plainly: Inhibition of β1 activity (RA, IC50), Ac-nLPnLD-AMC. It is filed as biochemical. The conditions noted are these: PA28α; for β1 (RA [%]): 10 µM, Table 3. As to the method: as §1, §2

Data set [2] in a line: HPLC-based stability assay in PBS. It is filed as physicochemical. The conditions noted are these: PBS pH 7.4. As to the method: GSH reactivity assay was performed as described by Petri et al.; 500 μM solution of compound (PBS buffer pH 7.4, 10% MeCN, 250 μL) with 200 μM solution of indoprofen as internal standard were added to 10 mM GSH solution (dissolved in PBS buffer, 250 μL) in a 1:1 ratio. The final concentration was 250 μM compound, 100 μM indoprofen, 5 mM GSH and 5% MeCN (500 μL). The final mixture was analyzed by HPLC after 0, 1, 2, 4, 8, 12, 24, 48, and 72 h. The degradation kinetics were also studied using the method described in [24], except that pure PBS buffer was used instead of GSH solution. In this experiment, the final concentration of the mixture was 250 μM fragment, 100 μM indoprofen and 5% MeCN. The area under the curve (AUC) values were determined by integrating the HPLC spectra and then corrected with the internal standard.

The mark [3] stands for this setting: 30 min pre-incubation, SDS activator.

Regarding `N#Cc1nc2ccc([N+](=O)[O-])cc2o1` [Compound 18], in data set [1], the “Stability in Buffer (UV-Vis-based assay)” value was “unstable ^c (above 0.2)”.
For `N#Cc1nc2cccc(N)c2o1` [Compound 23], in data set [1], the “Stability in Buffer (UV-Vis-based assay)” value is “stable ^c (relative absorbance difference for the compound in the buffer was below 0.1)”.
Regarding `CC(C)C[C@H](NC(=O)CCCCn1c(C#N)nc2ccccc21)B(O)O` [Compound 36], the “β2 (RA [%])” value on β2 subunit of human cCP (Table 6) is “NA (NA, Not active (RA above 95%))”. The “β2i (RA [%])” value at β2i subunit of human iCP (Table 6) is “NA (NA, Not active (RA above 95%))”. For the same molecule, the IC50 at β5 subunit of human cCP turned out to be 6.4 ± 2.6 µM; at β5i subunit of human iCP (setting [3]), 59 ± 7 µM; on β1i subunit of human iCP, 4.9 ± 0.4 µM; at β1 subunit of human cCP (30 min pre-incubation), 23 ± 6 µM. In addition, in data set [1], the “Stability in Buffer (UV-Vis-based assay)” value is “stable ^b (relative absorbance difference for the compound in the buffer was below 0.1)”.
With `COc1ccc2nc(C#N)oc2c1` [Compound 8], the “β2 (RA [%])” value on β2 subunit of human cCP (Table 3) is recorded as “NA (NA, Not active (RA above 90%))”. Moreover, the “Stability in Buffer (HPLC-based assay)” value in data set [2] is given as “stable”. For the same molecule, the “β2i (RA [%])” value at β2i subunit of human iCP (Table 3) is reported as “NA (NA, Not active (RA above 90%))”. For the same molecule, the “β5 (RA [%]) at 10 µM” value on β5 subunit of human cCP was found to be 74% ^b. Moreover, the “Stability in Buffer (UV-Vis-based assay)” value in data set [1] was “intermediate (between 0.1–0.2)”. In addition, the IC50 on β5i subunit of human iCP (setting [3]) stood at 11 ± 6 µM; at β1i subunit of human iCP, 69 µM. Also, at β5i subunit of human iCP (ΔpIC50/ΔNheavy with compound 1 as reference), the “Group efficiency (GE)” value amounted to 0.44. Moreover, the “β1 (RA [%])” value at β1 subunit of human cCP is on record as “NA (NA, Not active (RA above 90%))”.
As to `N#Cc1nc2c(N)cccc2o1` [Compound 20], the “Stability in Buffer (UV-Vis-based assay)” value in data set [1] was “stable ^c (relative absorbance difference for the compound in the buffer was below 0.1)”.
With `CC(C)C[C@H](NC(=O)Cn1c(C#N)nc2ccccc21)B(O)O` [Compound 33], the “Stability in Buffer (HPLC-based assay)” value in data set [2] is listed as “unstable ^b,c”. In data set [1], the “Stability in Buffer (UV-Vis-based assay)” value was “unstable ^b,c (above 0.2)”.
In the case of `CC(C)C[C@H](NC(=O)[C@H](Cc1ccccc1)NC(=O)c1cnccn1)B(O)O` [Bortezomib, reference compound], the “β2 (RA [%])” value at β2 subunit of human cCP (Table 3) is 62 ± 9%. Moreover, the “β2i (RA [%])” value at β2i subunit of human iCP (Table 3) is given as 16 ± 5%. For the same molecule, the remaining activity at 10 µM at β1i subunit of human iCP (10 µM, Table 3, read-out: β1i residual activity at 10 µM) amounted to 0%. Further, the “β1 (RA [%])” value at β1 subunit of human cCP was 0%.
Consider `CC(C)C[C@H](NC(=O)CCCCn1c(C#N)nc2ccccc21)B1O[C@@H]2C[C@@H]3C[C@@H](C3(C)C)[C@]2(C)O1` [Compound 32], for which, in data set [2], the “Stability in Buffer (HPLC-based assay)” value is given as “stable”. Moreover, the IC50 at β5 subunit of human cCP stood at 1.6 ± 0.8 µM; on β5i subunit of human iCP (setting [3]) it was 13 ± 2 µM. The “Stability in Buffer (UV-Vis-based assay)” value in data set [1] is reported as “intermediate (between 0.1–0.2)”.
Turning to `N#Cc1nc2cccc([N+](=O)[O-])c2o1` [Compound 19], the “Stability in Buffer (UV-Vis-based assay)” value in data set [1] was “stable ^c (relative absorbance difference for the compound in the buffer was below 0.1)”. Also, the “RA (%) at 10 µM, β5i” value on β5i subunit of human iCP (10 µM compound, 30 min pre-incubation, SDS activator) came out at 82 ± 2%.
With `CC(C)C[C@H](NC(=O)CCn1c(C#N)nc2ccc(Cl)cc21)B1O[C@@H]2C[C@@H]3C[C@@H](C3(C)C)[C@]2(C)O1` [Compound 37], the “Stability in Buffer (HPLC-based assay)” value in data set [2] was “stable”. The “β5 (RA [%]) at 10 µM” value on β5 subunit of human cCP worked out at 14 ± 1% ^e. Besides, the “Stability in Buffer (UV-Vis-based assay)” value in data set [1] is recorded as “intermediate (between 0.1–0.2)”. The IC50 on β5i subunit of human iCP (setting [3]) came to 1.6 ± 1.3 µM.
Turning to `N#Cc1nc2cc(NC(=O)c3ccccc3)ccc2o1` [Compound 25], the “Stability in Buffer (HPLC-based assay)” value in data set [2] is reported as “stable ^c,d”. The “Stability in Buffer (UV-Vis-based assay)” value in data set [1] is listed as “stable ^c,d (relative absorbance difference for the compound in the buffer was below 0.1)”.
For `N#Cc1nc2c([N+](=O)[O-])cccc2o1` [Compound 16], in that order: “unstable” and “intermediate (between 0.1–0.2)”.
For `N#Cc1nc2ccc(NC(=O)c3ccccc3)cc2o1` [Compound 26], in that order: “stable” and “unstable (above 0.2)”.
In the case of `N#Cc1nc2c(NC(=O)c3ccccc3)cccc2o1` [Compound 24], the “Stability in Buffer (UV-Vis-based assay)” value in data set [1] was “stable ^c (relative absorbance difference for the compound in the buffer was below 0.1)”.
On the same count and under the same terms, for `N#Cc1nc2cc(N)ccc2o1` [Compound 21] the value was “stable ^c (relative absorbance difference for the compound in the buffer was below 0.1)”; for `N#Cc1nc2cccc(NC(=O)c3ccccc3)c2o1` [Compound 27], “stable ^c (relative absorbance difference for the compound in the buffer was below 0.1)”.
As to `CC(C)C[C@H](NC(=O)Cn1c(C#N)nc2ccccc21)B1O[C@@H]2C[C@@H]3C[C@@H](C3(C)C)[C@]2(C)O1` [Compound 29], the “Stability in Buffer (HPLC-based assay)” value in data set [2] is recorded as “unstable ^b,c”. Moreover, the “Stability in Buffer (UV-Vis-based assay)” value in data set [1] was “unstable ^b,c (above 0.2)”.
For the molecule `N#Cc1nc2ccc(O)cc2o1` [Compound 12], the “Stability in Buffer (UV-Vis-based assay)” value in data set [1] is listed as “intermediate ^c (between 0.1–0.2)”.
